Target: recombinant Human Phosphodiesterase B2 (PDE4B2) (Homo sapiens, UniProt Q07343)
Assay: Human Phosphodiesterase B2 Radiometric Assay (yttrium silicate SPA beads, [3H]cyclic AMP)
Type: biochemical
Conditions: recombinant human PDE4B2, radiometric SPA assay, 8 nM [3H]cyclic AMP; read-out: PDE4B2 pIC50 (converted)
Method: Human Phosphodiesterase B2 Radiometric Assay
The assay uses recombinant Human Phosphodiesterase B2 (PDE4B2) produced in house (PrAZL0163), stored at −20° C. This assay is based on the observation that 5′AMP, the product of the reaction catalysed by PDE4, binds preferentially to yttrium silicate SPA beads (Amersham Biosciences, UK) compared to the substrate, cAMP. Compounds at the appropriate concentration were preincubated at 30 C for 30 min with an assay buffer containing 50 mM HEPES (pH 7.5), 8.3 mM MgCl2, 1.7 mM EGTA, 0.01% (w/v) Brij° 35 and 0.1 mg/mL recombinant PDE4B2. The reaction was started by the addition of [3H]cyclic AMP to give a final concentration of 8 nM, and was stopped 20 minutes after the addition of the substrate by the addition of yttrium silicate SPA beads containing 18 mM Zn SO4. Bound [3H]cyclic AMP was measured using a Topcount NXT (Packard Bioscience, UK). pIC50 values (presented in Table 15) were determined using Xlfit3 curve fitting, using model 205.

Chain of recombinant Human Phosphodiesterase B2 (PDE4B2) (Q07343 1-564 isoform Q07343-2): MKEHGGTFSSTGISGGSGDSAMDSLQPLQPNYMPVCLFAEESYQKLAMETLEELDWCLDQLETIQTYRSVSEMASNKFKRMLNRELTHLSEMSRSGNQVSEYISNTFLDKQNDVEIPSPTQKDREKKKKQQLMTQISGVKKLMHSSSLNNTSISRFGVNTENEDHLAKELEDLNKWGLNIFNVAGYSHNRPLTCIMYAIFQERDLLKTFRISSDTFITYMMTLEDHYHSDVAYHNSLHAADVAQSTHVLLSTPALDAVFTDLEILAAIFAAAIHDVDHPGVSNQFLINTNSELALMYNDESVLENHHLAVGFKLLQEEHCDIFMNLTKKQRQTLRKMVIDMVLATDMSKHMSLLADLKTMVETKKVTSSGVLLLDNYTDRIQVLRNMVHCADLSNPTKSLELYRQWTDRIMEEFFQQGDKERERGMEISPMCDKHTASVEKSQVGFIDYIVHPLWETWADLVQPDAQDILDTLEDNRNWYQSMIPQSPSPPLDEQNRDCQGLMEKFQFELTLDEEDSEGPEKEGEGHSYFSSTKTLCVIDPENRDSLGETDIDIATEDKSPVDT

IC50 [nM]	Compound
0.00794	C[C@H]1CN(Cc2ccc(-c3cccc(-n4c(=O)n([C@H]5CC[C@@H](NC(=O)c6cn7cc(F)ccc7n6)CC5)c(=O)c5cc(F)cnc54)c3)cc2)CCN1 (relative stereo) [Example 271, 6-Fluoro-N-{cis-4-[6-fluoro-1-(4′-{[(3S)-3-methylpiperazin-1-yl]methyl}biphenyl-3-yl)-2,4-dioxo-1,4-dihydropyrido[2,3-d]pyrimidin-3(2H)-yl]cyclohexyl}imidazo[1,2-a]pyridine-2-carboxamide]
2	C[C@H](O)CN(C)Cc1cc(O)ccc1-c1cccc(-n2c(=O)n([C@H]3CC[C@@H](NCc4cn5cc(F)ccc5n4)CC3)c(=O)c3cc(F)cnc32)c1 (relative stereo) [Example 318, 6-fluoro-3-(cis-4-{[(6-fluoroimidazo[1,2-a]pyridin-2-yl)methyl]amino}cyclohexyl)-1-(4′-hydroxy-2′-{[[(2S)-2-hydroxypropyl](methyl)amino]methyl}biphenyl-3-yl)pyrido[2,3-d]pyrimidine-2,4(1H,3H)-dione]
0.0251	O=C(N[C@H]1CC[C@@H](n2c(=O)c3cc(F)cnc3n(-c3cccc(-c4ccccc4)c3)c2=O)CC1)c1cn2cc(F)ccc2n1 [Example 1, N-[cis-4-(1-biphenyl-3-yl-6-fluoro-2,4-dioxo-1,4-dihydropyrido[2,3-d]pyrimidin-3(2H)-yl)cyclohexyl]-6-fluoroimidazo[1,2-c]pyridine-2-carboxamide]
0.158	CN1CCCC1c1ccc2nc(C(=O)N[C@H]3CC[C@@H](n4c(=O)c5cc(F)cnc5n(-c5cccc(-c6ccccc6)c5)c4=O)CC3)cn2c1 (stereo partly drawn) [Example 2, N-[cis-4-(1-biphenyl-3-yl-6-fluoro-2,4-dioxo-1,4-dihydropyrido[2,3-d]pyrimidin-3(2H)-yl)cyclohexyl]-6-(1-methylpyrrolidin-2-yl)imidazo[1,2-a]pyridine-2-carboxamide]
0.0316	O=C(N[C@H]1CC[C@@H](n2c(=O)c3cc(F)cnc3n(-c3cccc(-c4ccccc4)c3)c2=O)CC1)c1cn2ccccc2n1 [Example 3, N-[cis-4-(1-biphenyl-3-yl-6-fluoro-2,4-dioxo-1,4-dihydropyrido[2,3-d]pyrimidin-3(2H)-yl)cyclohexyl]imidazo[1,2-a]pyridine-2-carboxamide]
0.0398	O=C(Nc1ccccc1)c1cccc(-n2c(=O)n([C@H]3CC[C@@H](NC(=O)c4cn5ccccc5n4)CC3)c(=O)c3cc(F)cnc32)c1 [Example 4, N-{cis-4-[1-[3-(anilinocarbonyl)phenyl]-6-fluoro-2,4-dioxo-1,4-dihydropyrido[2,3-d]pyrimidin-3(2H)-yl]cyclohexyl}imidazo[1,2-c]pyridine-2-carboxamide]
39.8	NCCNC(=O)c1cccc(-n2c(=O)n([C@H]3CC[C@@H](NC(=O)c4cn5ccccc5n4)CC3)c(=O)c3cc(F)cnc32)c1 [Example 5, N-{cis-4-[1-(3-{[(2-aminoethyl)amino]carbonyl}phenyl)-6-fluoro-2,4-dioxo-1,4-dihydropyrido[2,3-d]pyrimidin-3(2H)-yl]cyclohexyl}imidazo[1,2-a]pyridine-2-carboxamide]
0.00794	O=C(N[C@H]1CC[C@@H](n2c(=O)c3cc(F)cnc3n(-c3cccc(C#Cc4cccnc4)c3)c2=O)CC1)c1cn2ccccc2n1 [Example 6, N-{cis-4-[6-fluoro-2,4-dioxo-1-[3-(pyridin-3-ylethynyl)phenyl]-1,4-dihydropyrido[2,3-d]pyrimidin-3(2H)-yl]cyclohexyl}imidazo[1,2-a]pyridine-2-carboxamide]
0.1	CN(C)Cc1ccc(-c2cccc(-n3c(=O)n([C@H]4CC[C@@H](NC(=O)c5cn6cc(F)ccc6n5)CC4)c(=O)c4cc(F)cnc43)c2)cc1 [Example 12, N-{cis-4-[1-{4′-[(dimethylamino)methyl]biphenyl-3-yl}-6-fluoro-2,4-dioxo-1,4-dihydropyrido[2,3-d]pyrimidin-3(2H)-yl]cyclohexyl}-6-fluoroimidazo[1,2-a]pyridine-2-carboxamide]
0.0631	O=C(N[C@H]1CC[C@@H](n2c(=O)c3cc(F)cnc3n(-c3cccc(-c4cccc(CN5CCOCC5)c4)c3)c2=O)CC1)c1cn2cc(F)ccc2n1 [Example 13, 6-fluoro-N-{cis-4-[6-fluoro-1-[3′-(morpholin-4-ylmethyl)biphenyl-3-yl]-2,4-dioxo-1,4-dihydropyrido[2,3-d]pyrimidin-3(2H)-yl]cyclohexyl}imidazo[1,2-a]pyridine-2-carboxamide.]
0.2	O=C(N[C@H]1CC[C@@H](n2c(=O)c3cc(F)cnc3n(-c3cccc(-c4cccc(CN5CCCCC5)c4)c3)c2=O)CC1)c1cn2cc(F)ccc2n1 [Example 14, 6-fluoro-N-{cis-4-[6-fluoro-2,4-dioxo-1-[3′-(piperidin-1-ylmethyl)biphenyl-3-yl]-1,4-dihydropyrido[2,3-d]pyrimidin-3(2H)-yl]cyclohexyl}imidazo[1,2-a]pyridine-2-carboxamide.]
0.0126	CSc1cccc(-c2cccc(-n3c(=O)n([C@H]4CC[C@@H](NC(=O)c5cn6cc(F)ccc6n5)CC4)c(=O)c4cc(F)cnc43)c2)c1 [Example 15, 6-fluoro-N-{cis-4-[6-fluoro-1-[3′-(methylthio)biphenyl-3-yl]-2,4-dioxo-1,4-dihydropyrido[2,3-d]pyrimidin-3(2H)-yl]cyclohexyl}imidazo[1,2-a]pyridine-2-carboxamide.]
0.251	CN(C)Cc1cccc(-c2cccc(-n3c(=O)n([C@H]4CC[C@@H](NC(=O)c5cn6cc(F)ccc6n5)CC4)c(=O)c4cc(F)cnc43)c2)c1 [Example 16, N-{cis-4-[1-{3′-[(dimethylamino)methyl]biphenyl-3-yl}-6-fluoro-2,4-dioxo-1,4-dihydropyrido[2,3-d]pyrimidin-3(2H)-yl]cyclohexyl}-6-fluoroimidazo[1,2-a]pyridine-2-carboxamide.]
0.00794	CSc1ccccc1-c1cccc(-n2c(=O)n([C@H]3CC[C@@H](NC(=O)c4cn5cc(F)ccc5n4)CC3)c(=O)c3cc(F)cnc32)c1 [Example 17, 6-fluoro-N-{cis-4-[6-fluoro-1-[2′-(methylthio)biphenyl-3-yl]-2,4-dioxo-1,4-dihydropyrido[2,3-d]pyrimidin-3(2H)-yl]cyclohexyl}imidazo[1,2-a]pyridine-2-carboxamide.]
0.0631	CC(C)(C)OC(=O)NCc1cccc(-c2cccc(-n3c(=O)n([C@H]4CC[C@@H](NC(=O)c5cn6cc(F)ccc6n5)CC4)c(=O)c4cc(F)cnc43)c2)c1 [Example 18, tert-butyl ({3′-[6-fluoro-3-(cis-4-{[(6-fluoroimidazo[1,2-a]pyridin-2-yl)carbonyl]amino}cyclohexyl)-2,4-dioxo-3,4-dihydropyrido[2,3-d]pyrimidin-1(2H)-yl]biphenyl-3-yl}methyl)carbamate.]
0.00316	O=C(N[C@H]1CC[C@@H](n2c(=O)c3cc(F)cnc3n(-c3cccc(-c4ccccc4CN4CCOCC4)c3)c2=O)CC1)c1cn2cc(F)ccc2n1 [Example 19, 6-fluoro-N-{cis-4-[6-fluoro-1-[2′-(morpholin-4-ylmethyl)biphenyl-3-yl]-2,4-dioxo-1,4-dihydropyrido[2,3-d]pyrimidin-3(2H)-yl]cyclohexyl}imidazo[1,2-a]pyridine-2-carboxamide.]

Source: patent US20100204203A1, “Chemical Compounds 637: Pyridopyrimidinediones as PDE4 Inhibitors” (priority 2007, published 2010)
